The source of these data is PubChem BioAssay AID179 (DTP/NCI, 2004).

Where “and” joins values, the source holds several entries; their conditions need not be identical. Equal entries are not always repeated. Calls of active or inactive are those of the source.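 Rule for the calls: active = compounds giving half or more protection of infected cells from virus-caused growth loss, again on retest; inactive = the rest.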 Where a SMILES comes first, the peptide text is derived from it.

As a reminder, the EC50 is the concentration at which the effect is half-maximal. What is called IC50 is the concentration needed to halve the response being measured. The low end stands for higher potency, the high end for lower potency.

This experiment has as its system CEM cells HIV-1 protection, formazan growth assay. The experiment is described as follows: NCI AIDS Antiviral Assay. The conditions noted are these: for IC50: measured here: growth of uninfected CEM cells. The essentials:
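Soluble formazan readout of cell growth; CEM cells ± HIV-1; 5 drug concs. ≥50% protection → retest; ≥50% again = moderately active; reproducible 100% = confirmed active.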

For the molecule `CCCCON1C[C@H](OC(C)=O)C(OC(C)=O)[C@H](OC(C)=O)C1` (stereo not given in full), the EC50 is more than 200 µM and the IC50 was more than 200 µM.
`Nc1ncnc2c1ncn2C1OC(CO)CC1F` (stereo not given): the IC50 was > 200 µM and 191 µM.
With `N#Cc1c(N)nc(SCc2ccccc2)c(C#N)c1-c1ccc(O)cc1`, the EC50 is more than 200 µM and the IC50 turned out to be 10 µM.
`COC(=O)c1cc(C(=CCN[C@@H]2CC[C@@]3(C)[C@@H](CC[C@@H]4[C@@H]3CC[C@]3(C)[C@@H]([C@H](C)CCCC(C)C)CC[C@@H]43)C2)c2cc(Cl)c(OC)c(C(=O)OC)c2)cc(Cl)c1OC`: the EC50 was more than 100 µM and the IC50 was more than 100 µM.
As for `CC(C)(C)C(=O)OCC1OC(N=[N+]=[N-])C(OC(=O)C(C)(C)C)C(OC(=O)C(C)(C)C)C1OC(=O)C(C)(C)C` (stereo not given), the EC50 is more than 200 µM and the IC50 is more than 200 µM.
Turning to `O=C1CN(c2ccccc2)CC(=O)N2C(c3ccccc3)CCCN12` (stereo not given), the outcome was inactive.
As to `N#C/C(C(=S)NCc1ccccc1)=C(/N)N1CCCC1`, the EC50 was more than 200 µM and the IC50 was determined as 148 µM.
As for `O=C1c2ccccc2C(=O)c2c(/C=C\N3CCCCC3)ccnc21`, the EC50 was more than 8.51 µM and the half-maximal inhibitory concentration (IC50) is more than 8.51 µM.
As to `CC(CO)/[N+]([O-])=N/O` (stereo not given), the EC50 was more than 479 µM.
As for `CC1(C)COC(c2cccc3c2C(=O)c2cccc(Cl)c2-3)=N1`, the EC50 is more than 83.2 µM and the IC50 is 79.4 µM.
As for `O=C1CSC(c2ccc(Cl)cc2)N1c1ccc(-c2ccc(-n3c(-c4ccccc4)nc4ccccc4c3=O)cc2)cc1` (stereo not given), the EC50 is more than 200 µM and the IC50 stood at 47.9 µM.
For `O=C1O/C(=C2\OCc3ccccc32)c2ccccc21`, the EC50 is more than 151 µM and the IC50 is more than 151 µM.
On to `Cc1cc(C2=CSC3=NCCN23)ccc1Cl`, for which the EC50 is more than 200 µM and the IC50 was 151 µM.
The like results for `C[N+](C)(C)CC1C2C=CC(C2)C1CO` (stereo not given) were, in that order, more than 275 µM and more than 275 µM.
In the case of `CCOc1ccc(N=C2NC(=O)C(CC(=O)Nc3ccc(Cl)cc3Cl)S2)cc1` (stereo not given), the EC50 is more than 214 µM and the half-inhibitory concentration (IC50) was more than 214 µM.
Turning to `CC1CCCc2c1n[nH]c2CC1CC(=O)NC(=O)C1` (stereo not given), the EC50 is more than 200 µM and the concentration for half-maximal inhibition (IC50) is more than 200 µM.
Take `COc1cccc(NC(=O)CC(=O)NN2C(=O)/C(=C/c3ccc(N(CCC#N)CCC#N)cc3)N=C2c2cc([N+](=O)[O-])ccc2Cl)c1`: the EC50 is more than 11 µM and the half-inhibitory concentration (IC50) is 7.24 µM.
`O=C(/C=C\c1ccccc1)c1ccc(-c2ccc([N+](=O)[O-])cc2)cc1`: the result was inactive.
For the molecule `O=S(=O)(O)c1ccc(N=Nc2ccc(N=Nc3c(O)c(S(=O)(=O)O)cc4cc(S(=O)(=O)O)ccc34)cc2)cc1`, the result was inactive.
`COC1c2ccccc2C2C(Cl)(Cl)C23c2ccccc2C13` (stereo not given): the EC50 is more than 12 µM and the half-maximal inhibitory concentration (IC50) was more than 12 µM.
Consider `CCC1C(=O)OCc2c1cc1n(c2=O)C(CC)c2c-1nc1ccccc1c2Cl` (stereo not given), for which the EC50 is more than 10 µM and the IC50 came to 4.68 µM.
The like results for `O=C(O)/C=C\C(=O)NCCCNC(=O)/C=C\C(=O)O` were, in that order, more than 933 µM and more than 933 µM.
`C=CCC(C)C12CCNC(Cc3ccc(O)cc31)C2C` (stereo not given): the EC50 is more than 200 µM and the IC50 was more than 200 µM.
Consider `COc1ccc(C2=Nc3c(nc(OC)[nH]c3=O)NC(c3ccccc3)C2)cc1` (stereo not given), for which the outcome was inactive.
In the case of `O=[N+]([O-])c1ccc(SSc2ccc([N+](=O)[O-])cc2)cc1`, the EC50 is more than 200 µM, the outcome was inactive and the concentration for half-maximal inhibition (IC50) was 24 µM.
Turning to `Cc1c2c(Cl)c3c(c(Cl)c2c(C)c2c(Cl)c4c(c(Cl)c12)C(c1ccccc1)(c1ccccc1)C4(c1ccccc1)c1ccccc1)C(c1ccccc1)(c1ccccc1)C3(c1ccccc1)c1ccccc1`, the EC50 is more than 100 µM and the half-maximal inhibitory concentration (IC50) was more than 100 µM.
As for `CCCCN(CCCC)C(=S)S`, the EC50 is more than 200 µM and the IC50 is more than 200 µM.
`O=C(O)c1ccc(C2COc3ccc(Cl)cc3C2)cc1` (stereo not given): the EC50 is more than 174 µM and the 50% inhibitory concentration (IC50) stood at 105 µM.
Take `COc1ccc(C(=C2C=CC=C2)c2ccc(OC)cc2)cc1`: the EC50 is more than 200 µM and the IC50 was determined as 52.5 µM.
The like results for `CC1=Nc2c(ccc3c2C(=O)c2ccccc2C3=O)NC(c2cccc3c2CCC3)C1` (stereo not given) were, in that order, more than 9.33 µM and more than 9.33 µM.
Take `CC(CCC/C=C/CCCN(C)C(=N)N)CC(C)C1OC(=O)C(C)C(O)/C=C/C(C)C(O)C(C)C(O)C(C)C(O)CCCC(O)CC2(O)OC(CC(OC(=O)CC(=O)O)CC(O)CC(O)C(C)C(O)/C=C/C=C/C1C)CC(O)C2O` (stereo not given): the result was inactive.
Take `CC1=C(C(=O)N[C@@H](CC(C)C)C(=O)O)N2C(=O)[C@@H](NC(=O)[C@@H](N)Cc3ccccc3)[C@H]2SC1`: the EC50 is more than 200 µM and the half-maximal inhibitory concentration (IC50) amounted to 85.1 µM.
In the case of `CC(C)=CCCC1(C)C=Cc2c(cc(O)c3c(=O)c4cccc(O)c4oc23)O1` (stereo not given), the EC50 is more than 200 µM and the half-maximal inhibitory concentration (IC50) was determined as 33.9 µM.
In the case of `Cn1c(NN)nc2ccccc2c1=O`, the outcome was inactive.
For the molecule `CC(NC(=O)OCC[P+](c1ccccc1)(c1ccccc1)c1ccccc1)C(=O)O` (stereo not given), the EC50 is more than 200 µM and the half-maximal inhibitory concentration (IC50) amounted to 5.89 µM.
On to `CC(C)CC(N)C(=O)NC(CC(=O)O)C(=O)NC(CCCCN)C(=O)NC(C)C(=O)NC(CO)C(=O)NC(Cc1ccc(O)cc1)C(=O)NC(CO)C(=O)NC(C(=O)NC(CC(N)=O)C(=O)NC(Cc1cnc[nH]1)C(=O)NC(CC(C)C)C(=O)O)C(C)O` (stereo not given) (H-LDKASYSTNHL-OH; configuration not given here), for which the EC50 was more than 50.1 µM, the outcome was inactive and the half-inhibitory concentration (IC50) is more than 50.1 µM.
Take `O=C(O)CCc1nc(-c2ccccc2)c(-c2ccccc2)o1`: the EC50 is more than 200 µM and the IC50 is more than 200 µM.
For the molecule `C/C=C/[C@@]1(OC(=O)c2ccccc2)C[C@@H]2CCCC[C@@H]21`, the outcome was inactive.
`Cc1cc(=O)oc2c1cc1ccc3cccc4ccc2c1c34`: the outcome was inactive.
In the case of `CC1CN2CC(C)OB(O1)OC(C)C2` (stereo not given), the result was inactive.
`O=C1OC(=O)C2=C1C1c3ccccc3C2c2ccccc21`: the EC50 was more than 95.5 µM and the IC50 was 22.4 µM.
The like results for `CCC[C@@H]1C(=O)N=C(N)N1C(=O)OCc1ccccc1` were, in that order, more than 200 µM and more than 200 µM.
As for `CC(NC(C#N)CC12CC3CC(CC(C3)C1)C2)c1ccccc1` (stereo not given), the EC50 was more than 200 µM and the IC50 is 41.7 µM.
Take `COC(=O)c1cc(C(=CCN[C@H]2CC[C@@]3(C)[C@@H](CC[C@@H]4[C@@H]3CC[C@]3(C)[C@@H]([C@H](C)CCCC(C)C)CC[C@@H]43)C2)c2cc(Cl)c(OC)c(C(=O)OC)c2)cc(Cl)c1OC`: the EC50 was more than 100 µM and the half-maximal inhibitory concentration (IC50) is more than 100 µM.
Regarding `CSc1nc[nH]c1C(N)=S`, the EC50 is more than 200 µM and the IC50 was more than 200 µM.
Consider `COC[C@@H](N=CN1CCc2ccccc2C1)c1ccccc1`, for which the EC50 is more than 324 µM and the 50% inhibitory concentration (IC50) is more than 324 µM.
On to `O=CC(O)C(O)C(O)C(O)COP(=O)(O)Cc1ccccc1` (stereo not given), for which the EC50 was more than 200 µM and the IC50 was more than 200 µM.
Regarding `O=Nc1c2n[nH]c1CCCCCCCCC2`, the EC50 is more than 309 µM and the half-maximal inhibitory concentration (IC50) is 44.7 µM.
Regarding `Cc1ccc(S(=O)(=O)Oc2nc3ccccc3nc2OS(=O)(=O)c2ccc(C)cc2)cc1`, the EC50 is more than 200 µM and the IC50 was found to be 38.9 µM.
Consider `O=C1NC(=O)N2CC(CI)OC2C1c1ccccc1` (stereo not given), for which the EC50 is more than 97.7 µM and the half-inhibitory concentration (IC50) was more than 97.7 µM.
For the molecule `N#CC1(C#N)C=CC(=C2OCC3CCCN23)C=C1` (stereo not given), the result was inactive.
Take `CSc1c(C(=O)Nc2ccc(Cl)cc2)c(N)[nH]c(=O)c1C#N`: the EC50 was more than 200 µM and the concentration for half-maximal inhibition (IC50) worked out at 1.2 µM.
As to `CC1CN(c2ccccc2)NC1=O` (stereo not given), the EC50 is more than 200 µM and the IC50 is more than 200 µM.
`COC(=O)c1ccc(NCc2cc(O)ccc2O)cc1O`: the EC50 was more than 200 µM and the IC50 stood at 10.5 µM.
With `Cc1c(C)c(CC(C)(COS(C)(=O)=O)COS(C)(=O)=O)c(C)c(C)c1CC(C)(COS(C)(=O)=O)COS(C)(=O)=O`, the EC50 was more than 20.9 µM and the half-maximal inhibitory concentration (IC50) was more than 20.9 µM.
In the case of `CNc1ccc(S(=O)Nc2ccc(OC)cc2)cc1` (stereo not given), the EC50 was more than 200 µM and the IC50 stood at 17.8 µM.
For the molecule `COc1ccc(-c2cc(=O)c3c(O)cc(OC)cc3o2)cc1`, the EC50 was 70.8 µM and the IC50 was found to be 74.1 µM.
`O=c1[nH]nc(Cc2ccccc2)n1/N=C/c1ccncc1`: the EC50 is 72.4 µM and the IC50 turned out to be 158 µM.
Take `OC/C=C/c1cccc(Cl)c1`: the outcome was inactive.
Consider `COc1ccc(C(C#N)NC23CC4CC(CC(C4)C2)C3)cc1OC` (stereo not given), for which the outcome was inactive.
`COc1cccc(NC(=O)CC(=O)NN)c1`: the EC50 is more than 200 µM and the IC50 was more than 200 µM.
As to `Cc1[nH]c(=S)[nH]c(=O)c1CCl`, the EC50 was more than 200 µM and the IC50 is 107 µM.
For the molecule `NCCSSc1ccccc1[N+](=O)[O-]`, the EC50 is more than 200 µM and the concentration for half-maximal inhibition (IC50) amounted to 11.2 µM.
For `Cc1c2ccccc2c(CSC(=N)N)c2ccccc12`, the EC50 was more than 200 µM and the concentration for half-maximal inhibition (IC50) stood at 0.112 µM.
As for `O=C([O-])C1([n+]2c(-c3ccccc3)cc(-c3ccccc3)cc2-c2ccccc2)CC1`, the EC50 was more than 200 µM and the IC50 is 81.3 µM.
Consider `O=c1[nH]c(Nc2ccc(F)c(Cl)c2)nc2nc[nH]c12`, for which the EC50 was more than 200 µM and the IC50 was more than 200 µM.
Consider `CCC(C)N1CN(c2ccccc2)C2(CCN(CCCC(=O)c3ccc(F)cc3)CC2)C1=O` (stereo not given), for which the EC50 was more than 200 µM and the IC50 stood at 3.55 µM.
On to `CCCCOCn1c(=O)[nH]c(=O)c2ccccc21`, for which the EC50 is more than 200 µM and the IC50 amounted to 162 µM.
For the molecule `c1csc(-c2ccc(-c3ccc(-c4cccs4)s3)s2)c1`, the EC50 was more than 200 µM and the IC50 is more than 200 µM.
For the molecule `Brc1ccc(N2N=NC3CNCC32)cc1` (stereo not given), the EC50 is more than 26.9 µM and the IC50 was more than 26.9 µM.
`O=C(C(c1ccccc1)c1ccccc1)N1CCN(c2ccccn2)CC1`: the EC50 was more than 89.1 µM and the IC50 was 29.5 µM.
